The numbers were not newly measured in publication PMC8468039, “Development of New Meridianin/Leucettine-Derived Hybrid Small Molecules as Nanomolar Multi-Kinase Inhibitors with Antitumor Activity” (Biomedicines, 2021), which cites them from elsewhere.

Each structure is given as a SMILES string.

As usually defined, the IC50 is the midpoint of a concentration-inhibition curve.

Common to all, as to details: cited from earlier work
Series [1] concerns CLK-1. Also on record: method as in PMID 21615147, PMID 19879673, PMID 22998443.
Series [2] concerns DYRK-2. On the set-up: method as in PMID 21615147, PMID 19879673, PMID 22998443.
Series [3] deals with DYRK-1A. Also on record: method as in PMID 21615147, PMID 19879673, PMID 22998443.
Series [4] relates to CLK-3. On the set-up: method as in PMID 8383730, PMID 21615147, PMID 19879673, PMID 22998443.

`CN1C(=O)/C(=C/c2ccc3c(c2)OCO3)N=C1N` [leucettamine B, Leucettamine B]: the IC50 is 0.4 µM in series [1], 1.5 µM in series [2], 2.8 µM in series [3] and 6.4 µM in series [4].
